Measured values as given in US7259140B2, “Heparin-binding peptides and uses thereof” (Thomas Jefferson University, priority 2003, dated 2007).
Bridge positions count the residues as written; N and C are the ends. Peptide text beside a SMILES is read from it.

Key:
[1] = Affinity coelectrophoresis (ACE) of peptide binding to radiolabeled low Mr heparin; parameters: species or system pig; conditions: pH 7.0, mean and standard deviation of four assays, read-out: Kd (nM), affinity for low molecular weight heparin
In short: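 Trace ¹²⁵I-tyramine end-labelled low-Mr (≦6,000) pig mucosal heparin electrophoresed through 1% agarose lanes containing serially diluted peptides in 50 mM MOPSO/125 mM sodium acetate, pH 7.0, with CHAPS. Heparin mobility read by phosphorimager; retardation coefficients fitted to R=R∞/{1+(Kd/[peptide])^n} to give apparent Kd.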

[2] = tested on: anti-Factor Xa Activity of the Low Molecular Weight Heparin Lovenox ®; assay: Anti-Factor Xa assay (Stachrom Heparin kit): neutralization of Lovenox in citrate or plasma in vitro; assay type: biochemical, human; conditions: for Lovenox ® Neutralized: Lovenox 0.7 U/ml
In short: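 Chromogenic anti-Factor Xa kit run with UFH, enoxaparin (Lovenox) or danaparoid (Orgaran) in 0.32% citrate or citrated plasma from three volunteers. Heparin/ATIII complex formed, peptide added, then Factor Xa and dye substrate; absorbance at 405 nm, inversely proportional to remaining anti-Factor Xa activity.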

[3] = tested on: Lovenox ® Activity in Blood from Patients Treated with Lovenox ®; assay: Neutralizing Lovenox activity in blood from patients treated with Lovenox (anti-Factor Xa assay); assay type: biochemical, human; conditions: Peptide 12 μg/ml
In short: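 Blood came from consenting volunteers already on Lovenox® therapy. Neutralizing peptides were tested as a dose response from 1–60 μg/ml. Each point is mean ± SD of triplicate analyses on one patient's blood sample.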

With `C[C@@H]1NC(=O)[C@H](C)NC(=O)[C@H](CCCCN)NC(=O)[C@H](CCCCN)NC(=O)[C@H](CCCNC(=N)N)NC(=O)[C@H](C)NC(=O)[C@H](C)NC(=O)[C@H](CCCCN)NC(=O)[C@H](C)NC(=O)[C@H](C)NC(=O)[C@H](CCCCN)NC(=O)[C@H](CCCCN)NC(=O)[C@H](CCCNC(=N)N)NC(=O)[C@H](C)NC(=O)[C@@H](N)CSSC[C@@H](C(=O)O)NC(=O)[C@H](C)NC(=O)[C@H](CCCCN)NC(=O)[C@H](C)NC(=O)[C@H](C)NC(=O)[C@H](CCCCN)NC(=O)[C@H](CCCCN)NC(=O)[C@H](CCCNC(=N)N)NC(=O)[C@H](C)NC(=O)[C@H](C)NC(=O)[C@H](CCCCN)NC(=O)[C@H](C)NC(=O)[C@H](C)NC(=O)[C@H](CCCCN)NC(=O)[C@H](CCCCN)NC(=O)[C@H](CCCNC(=N)N)NC(=O)[C@H](C)NC(=O)[C@H](C)NC(=O)[C@H](CCCCN)NC1=O` [C(ARKKAAKA)4C, cyclized C(ARKKAAKA)4C] (H-CARKKAAKAARKKAAKAARKKAAKAARKKAAKAC-OH; disulfide 1-34) the Kd [1] was 38 ± 13 nM, the “Lovenox ® Neutralized” value ([2]; 1 μg/ml Peptide, A Plasma) was 0.034 ± 0.019 U/ml and the “Lovenox ® Neutralized” value ([2]; 1 μg/ml Peptide, B Plasma) was 0.022 ± 0.009 U/ml. For the same compound, the “Lovenox ® Neutralized” value ([2]; 1 μg/ml Peptide, C Plasma) was 0.011 ± 0.005 U/ml, the “Lovenox ® Neutralized” value ([2]; 1 μg/ml Peptide, Citrate) was 0.058 ± 0.039 U/ml and the “Lovenox ® Neutralized” value ([2]; 6 μg/ml Peptide, A Plasma) was 0.102 ± 0.012 U/ml. For the same compound, the “Lovenox ® Neutralized” value ([2]; 6 μg/ml Peptide, B Plasma) was 0.126 ± 0.039 U/ml, the “Lovenox ® Neutralized” value ([2]; 6 μg/ml Peptide, C Plasma) was 0.092 ± 0.014 U/ml and the “Lovenox ® Neutralized” value ([2]; 6 μg/ml Peptide, Citrate) was 0.245 ± 0.064 U/ml. For the same compound, the “Lovenox ® Neutralized” value ([2]; 12 μg/ml Peptide, A Plasma) was 0.213 ± 0.048 U/ml, the “Lovenox ® Neutralized” value ([2]; 12 μg/ml Peptide, B Plasma) was 0.251 ± 0.098 U/ml and the “Lovenox ® Neutralized” value ([2]; 12 μg/ml Peptide, C Plasma) was 0.218 ± 0.047 U/ml. For the same compound, the “Lovenox ® Neutralized” value ([2]; 12 μg/ml Peptide, Citrate) was 0.474 ± 0.024 U/ml, the “Lovenox ® Neutralized” value ([2]; 60 μg/ml Peptide, A Plasma) was 0.496 ± 0.016 U/ml and the “Lovenox ® Neutralized” value ([2]; 60 μg/ml Peptide, B Plasma) was 0.506 ± 0.012 U/ml. The “Lovenox ® Neutralized” value ([2]; 60 μg/ml Peptide, C Plasma) was 0.522 ± 0.009 U/ml, the “Lovenox ® Neutralized” value ([2]; 60 μg/ml Peptide, Citrate) was 0.554 ± 0.023 U/ml and the “Lovenox ® Neutralized” value ([2]; 120 μg/ml Peptide, A Plasma) was 0.551 ± 0.031 U/ml. The “Lovenox ® Neutralized” value ([2]; 120 μg/ml Peptide, B Plasma) was 0.538 ± 0.013 U/ml, the “Lovenox ® Neutralized” value ([2]; 120 μg/ml Peptide, C Plasma) was 0.592 ± 0.019 U/ml and the “Lovenox ® Neutralized” value ([2]; 120 μg/ml Peptide, Citrate) was 0.525 ± 0.028 U/ml. The “anti-LMWH effect in citrate compared with plasma” value ([2]; Table 2A) was “greater anti-LMWH effect in citrate than in plasma”, the “Lovenox ® Neutralized” value ([3]; blood of Lovenox-treated Patient Number 1) was 0.164 U/ml and the “Lovenox ® Neutralized” value ([3]; blood of Lovenox-treated Patient Number 2) was 0.132 U/ml. For the same compound, the “Lovenox ® Neutralized” value ([3]; blood of Lovenox-treated Patient Number 3) was 0.119 U/ml, the “Lovenox ® Neutralized” value ([3]; blood of Lovenox-treated Patient Number 4) was 0.337 U/ml and the “Lovenox ® Neutralized” value ([3]; blood of Lovenox-treated Patient Number 5) was 0.230 U/ml. The “Lovenox ® Neutralized” value ([3]; blood of Lovenox-treated Patient Number 8) was 0.163 U/ml, the “Lovenox ® Neutralized” value ([3]; blood of Lovenox-treated Patient Number 9) was 0.418 U/ml and the “Lovenox ® Neutralized” value ([3]; blood of Lovenox-treated Patient Number 10) was 0.302 U/ml. For the same compound, the “Lovenox ® Neutralized” value ([3]; blood of Lovenox-treated Patient Number 11) was 0.175 U/ml.
